Reference: the NIST ThermoML archive (doi:10.1021/je200350a)
± gives the expanded uncertainty stated by the source.

Experiment: xn = mol fraction of the nth substance listed
Details: 101 kPa, Liquid; for viscosity: Capillary tube (Ostwald / Ubbelohde) method

O=[N+]([O-])c1ccccc1 [nitrobenzene] + CC1CCCCC1
viscosity (293.15 K, x1 = 0.1422): 0.785 ± 0.0076 mPa·s | viscosity (293.15 K, x1 = 0.2103): 0.8282 ± 0.0079 mPa·s | viscosity (293.15 K, x1 = 0.3412): 0.9436 ± 0.0089 mPa·s | viscosity (293.15 K, x1 = 0.404): 0.9971 ± 0.0094 mPa·s | viscosity (293.15 K, x1 = 0.5249): 1.125 ± 0.01 mPa·s | viscosity (293.15 K, x1 = 0.6397): 1.266 ± 0.012 mPa·s | viscosity (293.15 K, x1 = 0.7489): 1.416 ± 0.013 mPa·s | viscosity (293.15 K, x1 = 0.853): 1.613 ± 0.015 mPa·s | viscosity (293.15 K, x1 = 0.9031): 1.718 ± 0.015 mPa·s | mass density (293.15 K, x1 = 0.1422): 820.2 ± 1.1 kg/m3 | mass density (293.15 K, x1 = 0.2103): 845.2 ± 1 kg/m3 | mass density (293.15 K, x1 = 0.3412): 900.9 ± 0.9 kg/m3 | mass density (293.15 K, x1 = 0.404): 919.6 ± 0.9 kg/m3 | mass density (293.15 K, x1 = 0.5249): 973.2 ± 0.8 kg/m3 | mass density (293.15 K, x1 = 0.6397): 1027 ± 0.8 kg/m3 | mass density (293.15 K, x1 = 0.7489): 1075.7 ± 0.9 kg/m3 | mass density (293.15 K, x1 = 0.853): 1123.6 ± 1 kg/m3 | mass density (293.15 K, x1 = 0.9031): 1150.8 ± 1.1 kg/m3 | viscosity (298.15 K, x1 = 0.1422): 0.735 ± 0.0071 mPa·s | viscosity (298.15 K, x1 = 0.2103): 0.7723 ± 0.0075 mPa·s | viscosity (298.15 K, x1 = 0.3412): 0.8765 ± 0.0084 mPa·s | viscosity (298.15 K, x1 = 0.404): 0.9244 ± 0.0088 mPa·s | viscosity (298.15 K, x1 = 0.5249): 1.042 ± 0.0098 mPa·s | viscosity (298.15 K, x1 = 0.6397): 1.172 ± 0.011 mPa·s | viscosity (298.15 K, x1 = 0.7489): 1.312 ± 0.012 mPa·s | viscosity (298.15 K, x1 = 0.853): 1.484 ± 0.013 mPa·s | viscosity (298.15 K, x1 = 0.9031): 1.58 ± 0.014 mPa·s | mass density (298.15 K, x1 = 0.1422): 816.2 ± 1.1 kg/m3 | mass density (298.15 K, x1 = 0.2103): 840.8 ± 1 kg/m3 | mass density (298.15 K, x1 = 0.3412): 897.5 ± 0.9 kg/m3 | mass density (298.15 K, x1 = 0.404): 915.6 ± 0.9 kg/m3 | mass density (298.15 K, x1 = 0.5249): 970.2 ± 0.8 kg/m3 | mass density (298.15 K, x1 = 0.6397): 1022.7 ± 0.8 kg/m3 | mass density (298.15 K, x1 = 0.7489): 1071.6 ± 0.9 kg/m3 | mass density (298.15 K, x1 = 0.853): 1119.2 ± 1 kg/m3 | mass density (298.15 K, x1 = 0.9031): 1146.3 ± 1.1 kg/m3 | viscosity (303.15 K, x1 = 0.1422): 0.6901 ± 0.0068 mPa·s | viscosity (303.15 K, x1 = 0.2103): 0.7233 ± 0.0071 mPa·s | viscosity (303.15 K, x1 = 0.3412): 0.8177 ± 0.0079 mPa·s | viscosity (303.15 K, x1 = 0.404): 0.8618 ± 0.0082 mPa·s | viscosity (303.15 K, x1 = 0.5249): 0.9677 ± 0.0091 mPa·s | viscosity (303.15 K, x1 = 0.6397): 1.089 ± 0.01 mPa·s | viscosity (303.15 K, x1 = 0.7489): 1.218 ± 0.011 mPa·s | viscosity (303.15 K, x1 = 0.853): 1.371 ± 0.013 mPa·s | viscosity (303.15 K, x1 = 0.9031): 1.46 ± 0.013 mPa·s | mass density (303.15 K, x1 = 0.1422): 812.4 ± 1.1 kg/m3 | mass density (303.15 K, x1 = 0.2103): 837.4 ± 1 kg/m3 | mass density (303.15 K, x1 = 0.3412): 894.2 ± 0.9 kg/m3 | mass density (303.15 K, x1 = 0.404): 912.8 ± 0.9 kg/m3 | mass density (303.15 K, x1 = 0.5249): 965 ± 0.8 kg/m3 | mass density (303.15 K, x1 = 0.6397): 1019.6 ± 0.8 kg/m3 | mass density (303.15 K, x1 = 0.7489): 1067.8 ± 0.9 kg/m3 | mass density (303.15 K, x1 = 0.853): 1114.5 ± 1 kg/m3 | mass density (303.15 K, x1 = 0.9031): 1142 ± 1.1 kg/m3 | viscosity (308.15 K, x1 = 0.1422): 0.649 ± 0.0064 mPa·s | viscosity (308.15 K, x1 = 0.2103): 0.6777 ± 0.0067 mPa·s | viscosity (308.15 K, x1 = 0.3412): 0.7653 ± 0.0074 mPa·s | viscosity (308.15 K, x1 = 0.404): 0.8054 ± 0.0078 mPa·s | viscosity (308.15 K, x1 = 0.5249): 0.9044 ± 0.0086 mPa·s | viscosity (308.15 K, x1 = 0.6397): 1.015 ± 0.0096 mPa·s | viscosity (308.15 K, x1 = 0.7489): 1.136 ± 0.011 mPa·s | viscosity (308.15 K, x1 = 0.853): 1.272 ± 0.012 mPa·s | viscosity (308.15 K, x1 = 0.9031): 1.354 ± 0.012 mPa·s | mass density (308.15 K, x1 = 0.1422): 808.2 ± 1.1 kg/m3 | mass density (308.15 K, x1 = 0.2103): 832.3 ± 1 kg/m3 | mass density (308.15 K, x1 = 0.3412): 891 ± 0.9 kg/m3 | mass density (308.15 K, x1 = 0.404): 909 ± 0.9 kg/m3 | mass density (308.15 K, x1 = 0.5249): 962.6 ± 0.8 kg/m3 | mass density (308.15 K, x1 = 0.6397): 1016 ± 0.8 kg/m3 | mass density (308.15 K, x1 = 0.7489): 1062.9 ± 0.9 kg/m3 | mass density (308.15 K, x1 = 0.853): 1111.5 ± 1 kg/m3 | mass density (308.15 K, x1 = 0.9031): 1137.5 ± 1.1 kg/m3
